Experimental findings from patent publication US10508089B2, “Use of N-(1,3,4-Oxadiazol-2-yl)arylcarboxamides or their salts for controlling unwanted plants in areas of transgenic crop plants being tolerant to HPPD inhibitor herbicides” (BASF SE, priority 2014, dated 2019) are described below.

The target in assay [1] is PfHPPD Evo 40 SEQ ID No 27 (Pseudomonas sp., UniProt P80064, A172V/A339E/A53E/D148E/D45N/E105D/E287Q/E300V/E334P/F143Y/G286D/G335S/H150N/H254A/H63N/I158V/I187A/I249V/K92N/L18F/N24G/N280D/S245T/S257K/S301E/T205S/V65I). Kind of assay: biochemical. Set-up: species or system Pseudomonas fluorescens.
PfHPPD Evo 40 SEQ ID No 27, sequence (P80064 1-354 with tags or gaps with the stated changes limits assumed): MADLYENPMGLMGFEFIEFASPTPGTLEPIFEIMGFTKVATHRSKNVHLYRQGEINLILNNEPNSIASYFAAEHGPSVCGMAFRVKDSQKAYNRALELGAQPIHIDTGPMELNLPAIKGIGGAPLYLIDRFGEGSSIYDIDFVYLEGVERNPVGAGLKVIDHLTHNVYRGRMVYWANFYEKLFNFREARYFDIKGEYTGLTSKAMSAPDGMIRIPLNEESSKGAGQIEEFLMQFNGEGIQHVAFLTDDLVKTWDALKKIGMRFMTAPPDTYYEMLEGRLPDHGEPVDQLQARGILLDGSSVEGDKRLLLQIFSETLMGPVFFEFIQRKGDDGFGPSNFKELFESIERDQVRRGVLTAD
Assay [2] addresses PfHPPD Evo 41 SEQ ID No 29 (Pseudomonas sp., UniProt P80064, A172V/A339Q/A53E/D148E/D45N/E105D/E287Q/E300V/E334P/F143Y/G286D/G335W/H150N/H254A/H63N/I158V/I187A/I249V/K338A/K92N/L18F/N24G/N280D/S245T/S257K/S301E/T205S/V65I). The assay can be described thus: biochemical. Set-up: species or system Pseudomonas fluorescens.
The target of a further assay is Avena HPPD SEQ ID No 2 (Avena sativa, UniProt A0ACD5V6K6). The assay can be described thus: Determination of HPPD activity in presence of N-(1,3,4-Oxadiazol-2-yl)arylcarboxamides (pI50). The assay is classed as biochemical. The settings on record: negative log of molar concentration; inhibitor 0.1 to 100 μM; room temperature; 600 μM HPP. On the procedure:
(§1) HPPD activity was measured at room temperature by adding appropriate amounts of HPPD to a solution of 200 mM Tris-HCl pH 7.6, 10 mM ascorbate, 20 μM FeSO4, 650 units of catalase, 8 μg HGA dioxygenase (HGA: homogentisate) and 600 μM HPP in a total volume of 1 ml. Initial reaction rates in the absence or presence of inhibitors were determined from the increase in absorbance at 318 nm due to the formation of maleylacetoacetate (ϵ318=11,900 M−1 cm−1). pI50-values (the negative log values of the concentration of inhibitor necessary to inhibit 50% of the enzyme activity in molar concentration were determined from dose-response plots of HPPD activity versus inhibitor concentrations tested (0.1 to 100 μM) using the 4 Parameter Logistic Model or Sigmoidal Dose-Response Model of the ID Business Solutions Ltd. XLfit software suite. Due to the UV absorption of the HPPD inhibitors tested, inhibitor concentrations >100 μM could not be tested. In cases, the symbol “>” is used this means that the value was far higher than the one indicated but could not be precisely calculated within in the range of concentration of inhibitor tested.
(§2) In the 1st column of Table 8, the chemical compound employed in the assay is named (according to the numbering of the Tables 1 to 7, above). In columns 2, 3, 4, and 5 the pI50-values of the corresponding chemical compounds against various HPPD enzymes (name and SEQ ID Nos are indicated, respectively) are given.

For a further assay, the target named is FMP 37 SEQ ID No 9 (Blepharisma japonicum, UniProt A8R3H6). The assay is described as above. The settings on record: negative log of molar concentration; inhibitor 0.1 to 100 μM; room temperature; 600 μM HPP. The assay is classed as biochemical. On the procedure:
as §1, §2

The next assay has as its target PfHPPDEvo40 (Pseudomonas sp., UniProt P80064, A172V/A339E/A53E/D148E/D45N/E105D/E287Q/E300V/E334P/F143Y/G286D/G335S/H150N/H254A/H63N/I158V/I187A/I249V/K92N/L18F/N24G/N280D/S245T/S257K/S301E/T205S/V65I). Kind of assay: Brown color assay of HPPD extracts on solid media containing an HPPD inhibitor. Particulars: 250 uM inhibitor in solid media.
The test system of another assay is wild-type soybean shoots. The assay can be described thus: Soybean transformation, selection of shoots with HPPD inhibitor. The assay is classed as in vivo. Particulars: wild-type soybean shoots treated with the same amount of the respective HPPD inhibitor. From the text: (§3) Soybean transformation was achieved by using methods by best mode well known in the art, such as the one described using the Agrobacterium tumefaciens mediated transformation soybean half-seed explants using essentially the method described by Paz et al. (2006), Plant cell Rep. 25:206. Transformants were identified using various HPPD inhibitors tembotrione or isoxaflutole as selection marker. The appearance of green shoots can be observed, and documented as an indicator of tolerance to the respective herbicide.

The test system of assay [3] is tolerant transgenic soybean shoots. The description is as above. It is filed as in vivo. The settings on record: compared with untreated wild-type soybean shoots.
From the text: as §3

FMP 37 SEQ ID No 9, sequence (A8R3H6 entry or part of it): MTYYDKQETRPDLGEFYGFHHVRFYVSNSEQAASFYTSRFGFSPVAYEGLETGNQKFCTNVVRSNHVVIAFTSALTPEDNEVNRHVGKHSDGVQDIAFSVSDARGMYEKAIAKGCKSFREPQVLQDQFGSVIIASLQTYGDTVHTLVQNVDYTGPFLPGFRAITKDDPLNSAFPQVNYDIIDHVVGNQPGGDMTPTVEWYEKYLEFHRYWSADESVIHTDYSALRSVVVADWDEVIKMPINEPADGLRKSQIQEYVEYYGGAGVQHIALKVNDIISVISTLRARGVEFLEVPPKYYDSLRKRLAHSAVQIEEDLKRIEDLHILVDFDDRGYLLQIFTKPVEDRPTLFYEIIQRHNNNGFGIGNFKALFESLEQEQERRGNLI
Avena HPPD SEQ ID No 2, sequence (A0ACD5V6K6 entry or part of it): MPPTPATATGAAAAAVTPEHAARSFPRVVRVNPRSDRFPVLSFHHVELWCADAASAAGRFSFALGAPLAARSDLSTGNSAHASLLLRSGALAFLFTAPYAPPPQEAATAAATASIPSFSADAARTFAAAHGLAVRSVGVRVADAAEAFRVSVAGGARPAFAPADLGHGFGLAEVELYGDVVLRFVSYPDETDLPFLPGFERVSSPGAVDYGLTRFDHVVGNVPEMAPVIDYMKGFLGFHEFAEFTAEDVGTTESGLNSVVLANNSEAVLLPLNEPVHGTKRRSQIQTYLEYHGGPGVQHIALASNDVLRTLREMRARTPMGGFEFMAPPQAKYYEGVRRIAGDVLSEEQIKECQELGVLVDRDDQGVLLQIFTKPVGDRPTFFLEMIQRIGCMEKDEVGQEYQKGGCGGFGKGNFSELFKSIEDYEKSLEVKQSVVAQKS
PfHPPD Evo 41 SEQ ID No 29, sequence (P80064 1-354 with tags or gaps with the stated changes limits assumed): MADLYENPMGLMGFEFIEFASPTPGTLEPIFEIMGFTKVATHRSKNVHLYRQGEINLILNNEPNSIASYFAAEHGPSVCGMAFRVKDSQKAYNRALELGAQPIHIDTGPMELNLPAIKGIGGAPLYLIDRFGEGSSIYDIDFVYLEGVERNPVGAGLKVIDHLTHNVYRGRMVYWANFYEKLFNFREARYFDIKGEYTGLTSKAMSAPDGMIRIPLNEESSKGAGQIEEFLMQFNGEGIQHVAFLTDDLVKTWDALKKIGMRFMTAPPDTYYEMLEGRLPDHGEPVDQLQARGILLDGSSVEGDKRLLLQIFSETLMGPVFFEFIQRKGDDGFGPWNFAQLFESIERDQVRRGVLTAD

For orientation: IC50 means the concentration at which inhibition is half-maximal. As for `Cc1nnc(NC(=O)c2ccc(C(F)(F)F)c([S+](C)[O-])c2C)o1` (centres unmarked) [Compound 2-144], the IC50 in assay [1] was 6.31 µM; in assay [2], 10 µM; at Avena HPPD SEQ ID No 2, 3.98 µM; at FMP 37 SEQ ID No 9, 12.6 µM.
For `Cc1nnc(NC(=O)c2ccc(C(F)(F)F)c([S+](C)[O-])c2Cl)o1` (centres unmarked) [Compound 2-360], in that order: 15.8 µM, 20 µM, 3.98 µM and 20 µM.
Turning to `Cc1nnc(NC(=O)c2ccc(C(F)(F)F)c(S(C)(=O)=O)c2Cl)o1` [Compound 2-361], the IC50 in assay [1] is 5.01 µM; in assay [2], 7.94 µM; on Avena HPPD SEQ ID No 2, 1.58 µM; on FMP 37 SEQ ID No 9 it was 12.6 µM.
For `Cc1nnc(NC(=O)c2ccc(C(F)(F)F)c(-n3cccn3)c2Cl)o1` [Compound 2-363] the same measures were 6.31 µM, 12.6 µM, 1.58 µM and 10 µM.
For `Cc1nnc(NC(=O)c2ccc(C(F)(F)F)c(OCCF)c2Cl)o1` [Compound 2-364], in that order: 12.6 µM, 31.6 µM, 1.58 µM and 7.94 µM.
For `COCc1nnc(NC(=O)c2ccc(C(F)(F)F)c(S(C)(=O)=O)c2C)o1` [Compound 5-145] the same measures were < 5.01 µM, < 5.01 µM, 3.16 µM and 10 µM.
For the molecule `Cc1c(C(=O)Nc2nnc(C3CC3)o2)ccc(C(F)(F)F)c1[S+](C)[O-]` (centres unmarked) [Compound 6-37], the IC50 in assay [1] is 126 µM; in assay [2], 158 µM; at Avena HPPD SEQ ID No 2, 39.8 µM; on FMP 37 SEQ ID No 9, 158 µM.
In the case of `Cc1nnc(NC(=O)c2ccc(C(F)(F)F)nc2C)o1` [Compound 7-132], the IC50 is 200 µM in assay [1], 251 µM in assay [2], 15.8 µM on Avena HPPD SEQ ID No 2 and 7.94 µM on FMP 37 SEQ ID No 9.
In the case of `CS(=O)(=O)c1cc(C(F)(F)F)ccc1C(=O)C(C#N)C(=O)C1CC1` (centres unmarked) [diketonitrile], at PfHPPDEvo40, the “tolerance of variant PfHPPDEvo40 compared to PfHPPD336W (brown pigment formation, titration of extract)” value is “improved tolerance”.
Regarding `CS(=O)(=O)c1cc(C(F)(F)F)ccc1C(=O)c1cnoc1C1CC1` [isoxaflutole], the “appearance of shoots under HPPD inhibitor selection” value in the assay with wild-type soybean shoots is “entirely bleached”; in assay [3], “normal greening”.
On to `CS(=O)(=O)c1ccc(C(=O)C2C(=O)CCCC2=O)c(Cl)c1COCC(F)(F)F` [tembotrione], for which the “appearance of shoots under HPPD inhibitor selection” value in the assay with wild-type soybean shoots is given as “entirely bleached”; in assay [3], “normal greening”. Also, the “tolerance of variant PfHPPDEvo40 compared to PfHPPD336W (brown pigment formation, titration of extract)” value at PfHPPDEvo40 is given as “improved tolerance”.
